# In PubChem BioAssay (NCI):
#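 Compound exposure: 48 hours, 5 concentrations, 96-well plates. GI50: concentration for 50% inhibition of growth. Definition used: TGI = concentration required for complete inhibition of growth.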
# Columns and labels:
# Assay in all cases: growth of human tumour cells (NCI), 48 h
# 786-0 renal = system: 786-0 renal
# A498 renal = system: A498 renal
# A549 NSCLC = system: A549 NSCLC
# ACHN renal = system: ACHN renal
# BT-549 breast = system: BT-549 breast
# CAKI-1 renal = system: CAKI-1 renal
# CCRF-CEM leukemia = system: CCRF-CEM leukemia
# COLO 205 colon = system: COLO 205 colon
# DU-145 prostate = system: DU-145 prostate
# EKVX NSCLC = system: EKVX NSCLC
# HCC-2998 colon = system: HCC-2998 colon
# HCT-116 colon = system: HCT-116 colon
# HCT-15 colon = system: HCT-15 colon
# HL-60(TB) leukemia = system: HL-60(TB) leukemia
# HOP-62 NSCLC = system: HOP-62 NSCLC
# HOP-92 NSCLC = system: HOP-92 NSCLC
# HS 578T breast = system: HS 578T breast
# HT29 colon = system: HT29 colon
# IGROV1 ovarian = system: IGROV1 ovarian
# K-562 leukemia = system: K-562 leukemia
# KM12 colon = system: KM12 colon
# LOX IMVI melanoma = system: LOX IMVI melanoma
# M14 melanoma = system: M14 melanoma
# MALME-3M melanoma = system: MALME-3M melanoma
# MCF7 breast = system: MCF7 breast
# MDA-MB-231 breast = system: MDA-MB-231 breast
# MDA-MB-435 = system: MDA-MB-435
# MOLT-4 leukemia = system: MOLT-4 leukemia
# NCI-H226 lung = system: NCI-H226 lung
# NCI-H23 lung = system: NCI-H23 lung
# NCI-H460 lung = system: NCI-H460 lung
# NCI-H522 lung = system: NCI-H522 lung
# NCI/ADR-RES ovarian = system: NCI/ADR-RES ovarian
# OVCAR-3 ovarian = system: OVCAR-3 ovarian
# OVCAR-4 ovarian = system: OVCAR-4 ovarian
# OVCAR-5 ovarian = system: OVCAR-5 ovarian
# OVCAR-8 ovarian = system: OVCAR-8 ovarian
# PC-3 prostate = system: PC-3 prostate
# RPMI-8226 leukemia = system: RPMI-8226 leukemia
# RXF 393 renal = system: RXF 393 renal
# SF-268 CNS = system: SF-268 CNS
# SF-295 CNS = system: SF-295 CNS
# SF-539 CNS = system: SF-539 CNS
# SK-MEL-2 melanoma = system: SK-MEL-2 melanoma
# SK-MEL-28 melanoma = system: SK-MEL-28 melanoma
# SK-MEL-5 melanoma = system: SK-MEL-5 melanoma
# SK-OV-3 ovarian = system: SK-OV-3 ovarian
# SN12C renal = system: SN12C renal
# SNB-19 CNS = system: SNB-19 CNS
# SNB-75 CNS = system: SNB-75 CNS
# SW-620 colon = system: SW-620 colon
# T-47D breast = system: T-47D breast
# TK-10 renal = system: TK-10 renal
# U251 CNS = system: U251 CNS
# UACC-257 melanoma = system: UACC-257 melanoma
# UACC-62 melanoma = system: UACC-62 melanoma
# UO-31 renal = system: UO-31 renal
compound,measurement,setting,value
COc1cc(/C=C/C(=O)c2cccc(Nc3nc(Nc4ccccc4)nc(Nc4ccccc4)n3)c2)cc(OC)c1OC,GI50,786-0 renal,7.66 µM
same,TGI,786-0 renal,43.2 µM
same,GI50,A498 renal,7.47 µM
same,TGI,A498 renal,> 49.9 µM
same,GI50,A549 NSCLC,36.6 µM
same,TGI,A549 NSCLC,> 100 µM
same,GI50,ACHN renal,24.1 µM
same,TGI,ACHN renal,> 100 µM
same,GI50,BT-549 breast,8.36 µM
same,TGI,BT-549 breast,> 100 µM
same,TGI,CAKI-1 renal,> 26.2 µM
same,GI50,CCRF-CEM leukemia,0.904 µM
same,TGI,CCRF-CEM leukemia,5.67 µM
same,GI50,COLO 205 colon,4.77 µM
same,TGI,COLO 205 colon,30.7 µM
same,GI50,DU-145 prostate,5.91 µM
same,TGI,DU-145 prostate,> 100 µM
same,GI50,EKVX NSCLC,9.94 µM
same,TGI,EKVX NSCLC,> 100 µM
same,GI50,HCC-2998 colon,5.5 µM
same,TGI,HCC-2998 colon,53.1 µM
same,GI50,HCT-116 colon,2.68 µM
same,TGI,HCT-116 colon,> 66.6 µM
same,GI50,HCT-15 colon,4.57 µM
same,TGI,HCT-15 colon,> 100 µM
same,GI50,HL-60(TB) leukemia,1.33 µM
same,TGI,HL-60(TB) leukemia,4.1 µM
same,GI50,HOP-62 NSCLC,23.5 µM
same,TGI,HOP-62 NSCLC,> 94.5 µM
same,GI50,HOP-92 NSCLC,1.36 µM
same,TGI,HOP-92 NSCLC,> 31.2 µM
same,GI50,HS 578T breast,4.83 µM
same,TGI,HS 578T breast,> 54.4 µM
same,GI50,HT29 colon,6.41 µM
same,TGI,HT29 colon,> 100 µM
same,GI50,IGROV1 ovarian,3.22 µM
same,TGI,IGROV1 ovarian,> 100 µM
same,GI50,K-562 leukemia,1.37 µM
same,TGI,K-562 leukemia,> 38.8 µM
same,GI50,KM12 colon,3.71 µM
same,TGI,KM12 colon,> 87.9 µM
same,GI50,LOX IMVI melanoma,6.32 µM
same,TGI,LOX IMVI melanoma,> 45.1 µM
same,GI50,M14 melanoma,24.1 µM
same,TGI,M14 melanoma,> 100 µM
same,GI50,MALME-3M melanoma,18.2 µM
same,TGI,MALME-3M melanoma,79.3 µM
same,GI50,MCF7 breast,0.588 µM
same,TGI,MCF7 breast,> 54.1 µM
same,GI50,MDA-MB-231 breast,11.7 µM
same,TGI,MDA-MB-231 breast,> 100 µM
same,GI50,MDA-MB-435,7.67 µM
same,TGI,MDA-MB-435,> 73.4 µM
same,GI50,MOLT-4 leukemia,1.07 µM
same,TGI,MOLT-4 leukemia,4.38 µM
same,GI50,NCI-H226 lung,17.2 µM
same,TGI,NCI-H226 lung,> 81 µM
same,GI50,NCI-H23 lung,6.07 µM
same,TGI,NCI-H23 lung,> 100 µM
same,GI50,NCI-H460 lung,2.05 µM
same,TGI,NCI-H460 lung,20.9 µM
same,GI50,NCI-H522 lung,5.11 µM
same,TGI,NCI-H522 lung,> 100 µM
same,GI50,NCI/ADR-RES ovarian,3.82 µM
same,TGI,NCI/ADR-RES ovarian,> 100 µM
same,GI50,OVCAR-3 ovarian,4.49 µM
same,TGI,OVCAR-3 ovarian,56 µM
same,GI50,OVCAR-4 ovarian,33.9 µM
same,TGI,OVCAR-4 ovarian,> 100 µM
same,GI50,OVCAR-5 ovarian,38.4 µM
same,TGI,OVCAR-5 ovarian,> 100 µM
same,GI50,OVCAR-8 ovarian,0.988 µM
same,TGI,OVCAR-8 ovarian,> 100 µM
same,GI50,PC-3 prostate,2.19 µM
same,TGI,PC-3 prostate,> 100 µM
same,GI50,RPMI-8226 leukemia,0.53 µM
same,TGI,RPMI-8226 leukemia,4.58 µM
same,GI50,RXF 393 renal,1.6 µM
same,TGI,RXF 393 renal,11.1 µM
same,GI50,SF-268 CNS,13.8 µM
same,TGI,SF-268 CNS,> 100 µM
same,GI50,SF-295 CNS,2.58 µM
same,GI50,SF-539 CNS,12 µM
same,TGI,SF-539 CNS,34 µM
same,GI50,SK-MEL-2 melanoma,7.78 µM
same,TGI,SK-MEL-2 melanoma,> 65.4 µM
same,GI50,SK-MEL-28 melanoma,4.02 µM
same,TGI,SK-MEL-28 melanoma,19.6 µM
same,GI50,SK-MEL-5 melanoma,2.7 µM
same,TGI,SK-MEL-5 melanoma,23.8 µM
same,GI50,SK-OV-3 ovarian,43.1 µM
same,TGI,SK-OV-3 ovarian,> 100 µM
same,GI50,SN12C renal,20.7 µM
same,TGI,SN12C renal,> 100 µM
same,GI50,SNB-19 CNS,10.1 µM
same,TGI,SNB-19 CNS,> 100 µM
same,GI50,SNB-75 CNS,16 µM
same,TGI,SNB-75 CNS,> 100 µM
same,GI50,SW-620 colon,3.73 µM
same,TGI,SW-620 colon,> 100 µM
same,GI50,T-47D breast,1.98 µM
same,TGI,T-47D breast,> 59 µM
same,GI50,TK-10 renal,63.9 µM
same,TGI,TK-10 renal,> 100 µM
same,GI50,U251 CNS,11.4 µM
same,TGI,U251 CNS,> 100 µM
same,GI50,UACC-257 melanoma,25 µM
same,TGI,UACC-257 melanoma,> 100 µM
same,GI50,UACC-62 melanoma,43.8 µM
same,TGI,UACC-62 melanoma,> 100 µM
same,GI50,UO-31 renal,5.15 µM
same,TGI,UO-31 renal,> 100 µM
